Laboratory results reported in US20240287070A1, “FUSED HETEROCYCLIC DERIVATIVES” (Janssen Sciences Ireland Unlimited Company, priority 2021, published 2024).

Legend:
[1] = Human liver microsome stability; format: in vitro ADME; conditions: 1 μM compound, NADPH 1 mM, 37° C., 0-60 min; for HLM Metabolism t1/2: pooled human liver microsomes 0.5 mg/mL; for half-life at 1 μM: human, pooled human liver microsomes, pH 7.4, pooled human liver microsomes 0.5 mg/mL, read-out: HLM Metabolism t1/2
Summary of the method: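 Single incubations with human liver microsomes started with 1 mM NADPH; samples taken at 0, 5, 10, 20, 40 and 60 min, quenched in acetonitrile (1:3). Cassette LC-MS analysis with internal standard; t½ derived from slope of ln peak-area ratio versus time (k = −gradient).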

HepG2 or HepG2.117 cells = assay: Cytotoxicity, ATPlite Luminescence Assay; format: cell-based, human; conditions: 3-days incubation unless marked with *
Summary of the method: (§1)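 Viability after compound treatment is read as ATP luminescence. Exposure lasts 3 or 4 days.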

[2] = system: HBV (HepG2.117 cell line, inducibly HBV producing); assay: Anti-HBV activity, intracellular HBV DNA by real-time PCR in HepG2.117 cell line; format: cell-based, hepatitis B virus; conditions: HepG2.117 cells, 3 days of treatment
Summary of the method: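 Inducible HBV-producing HepG2.117 line (Tet-off); 3-day exposure to serially diluted compound after induction; real-time PCR of intracellular viral DNA.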

[3] = Cytotoxicity, ATPlite Luminescence Assay; format: cell-based, human; conditions: human, HepG2 or HepG2.117 cells, 3-days incubation unless marked with *
Summary of the method: as §1

[4] = Hepatitis B virus, HepG2.117, 72 h

| Structure (SMILES) | HLM Metabolism t1/2 [1] | CC50 (HepG2 or HepG2.117 cells) | EC50 [2] | CC50 at 3 days [3] | EC50 [2, 4] | half-life at 1 μM [1] |
| --- | --- | --- | --- | --- | --- | --- |
| CC(c1cnc(N2CCOC[C@@H]2C)nc1)N1C[C@@H](C)n2nc3c(c2C1=O)CN(C(=O)c1ccc(Cl)c(C(F)(F)F)c1)[C@H](C)C3 (single isomer, unassigned) [Compound 38B, (3R,7R)-2-(4-chloro-3-(trifluoromethyl)benzoyl)-3,7-dimethyl-9-((S*)-1-(2-((S)-3-methylmorpholino)pyrimidin-5-yl)ethyl)-1,2,3,4,8,9-hexahydropyrido[4′,3′:3,4]pyrazolo[1,5-a]pyrazin-10(7H)-one] | 0.642 h | 28.4 µM | 0.012 µM |  |  |  |
| Cc1nnn(-c2ccc(C(C)N3C[C@@H](C)n4nc5c(c4C3=O)CN(C(=O)c3ccc(Cl)c(Cl)c3)[C@H](C)C5)cc2)n1 (single isomer, unassigned) [Compound 22B, (3R,7R)-2-(3,4-dichlorobenzoyl)-3,7-dimethyl-9-((S*)-1-(4-(5-methyl-2H-tetrazol-2-yl)phenyl)ethyl)-1,2,3,4,8,9-hexahydropyrido[4′,3′:3,4]pyrazolo[1,5-a]pyrazin-10(7H)-one] | 2.13 h | > 50 µM | 0.02 µM |  |  |  |
| CC(c1ccn(CC(F)(F)F)n1)N1C[C@@H](C)n2nc3c(c2C1=O)CN(C(=O)c1ccc(Cl)c(C#N)c1)[C@H](C)C3 (single isomer, unassigned) [Compound 42A, 2-chloro-5-((3R,7R)-3,7-Dimethyl-10-oxo-9-((R*)-1-(1-(2,2,2-trifluoroethyl)-1H-pyrazol-3-yl)ethyl)-1,2,3,4,7,8,9,10-octahydropyrido[4′,3′:3,4]pyrazolo[1,5-a]pyrazine-2-carbonyl)benzonitrile] | >3 h | > 50 µM | 0.12 µM |  |  |  |
| CC(c1ccc(S(N)(=O)=O)cc1)N1C[C@@H](C)n2nc3c(c2C1=O)CN(C(=O)c1ccc(Cl)c(Cl)c1)[C@H](C)C3 (single isomer, unassigned) [Compound 16B, 4-((S*)-1-((3R,7R)-2-(3,4-dichlorobenzoyl)-3,7-dimethyl-10-oxo-1,2,3,4,7,8-hexahydropyrido[4′,3′:3,4]pyrazolo[1,5-a]pyrazin-9(10H)-yl)ethyl)benzenesulfonamide] | >3 h | > 50 µM | 0.059 µM |  |  |  |
| CC(c1cnc(C(C)(C)O)nc1)N1C[C@@H](C)n2nc3c(c2C1=O)CN(C(=O)c1ccc(Cl)c(Cl)c1)[C@H](C)C3 (single isomer, unassigned) [Compound 36B, (3R,7R)-2-(3,4-Dichlorobenzoyl)-9-((S*)-1-(2-(2-hydroxypropan-2-yl)pyrimidin-5-yl)ethyl)-3,7-dimethyl-1,2,3,4,8,9-hexahydropyrido[4′,3′:3,4]pyrazolo[1,5-a]pyrazin-10(7H)-one] | >3 h | > 50 µM | 0.029 µM |  |  |  |
| Cc1nnc(C(C)N2C[C@@H](C)n3nc4c(c3C2=O)CN(C(=O)c2ccc(Cl)c(Cl)c2)[C@H](C)C4)o1 (single isomer, unassigned) [Compound 43B, (3R,7R)-2-(3,4-dichlorobenzoyl)-3,7-dimethyl-9-((S*)-1-(5-methyl-1,3,4-oxadiazol-2-yl)ethyl)-1,2,3,4,8,9-hexahydropyrido[4′,3′:3,4]pyrazolo[1,5-a]pyrazin-10(7H)-one] | >3 h | > 50 µM | 0.065 µM |  |  |  |
| CC(c1ccn(CC(F)(F)F)c(=O)c1)N1C[C@@H](C)n2nc3c(c2C1=O)CN(C(=O)c1ccc(Cl)c(Cl)c1)[C@H](C)C3 (single isomer, unassigned) [Compound 51B, (3R,7R)-2-(3,4-dichlorobenzoyl)-3,7-dimethyl-9-((S*)-1-(2-oxo-1-(2,2,2-trifluoroethyl)-1,2-dihydropyridin-4-yl)ethyl)-1,2,3,4,8,9-hexahydropyrido[4′,3′:3,4]pyrazolo[1,5-a]pyrazin-10(7H)-one] | >3 h | > 50 µM | 0.028 µM |  |  |  |
| C[C@@H]1Cc2nn3c(c2CN1C(=O)c1ccc(Cl)c(C(F)(F)F)c1)C(=O)N([C@@H](C)c1ccc([S@](C)(=O)=NC#N)cc1)C[C@H]3C (relative stereo) [Compound 20D, N—((S*)-(4-((S*)-1-((3R,7R)-2-(4-chloro-3-(trifluoromethyl)benzoyl)-3,7-dimethyl-10-oxo-1,3,4,7,8,10-hexahydropyrido[4′,3′:3,4]pyrazolo[1,5-a]pyrazin-9(2H)-yl)ethyl)phenyl)(methyl)(oxo)-16-sulfaneylidene)cyanamide] | 1.47 h | > 50 µM | 0.032 µM |  |  |  |
| Cc1ncnn1-c1ccc(C(C)N2C[C@@H](C)n3nc4c(c3C2=O)CN(C(=O)c2ccc(Cl)c(Cl)c2)[C@H](C)C4)cn1 (relative stereo) [Compound 25A, (3R,7R)-2-(3,4-dichlorobenzoyl)-3,7-dimethyl-9-((R*)-1-(6-(5-methyl-11H-1,2,4-triazol-1-yl)pyridin-3-yl)ethyl)-1,2,3,4,8,9-hexahydropyrido[4′,3′:3,4]pyrazolo[1,5-a]pyrazin-10(7H)-one] | >3 h | > 50 µM | 0.23 µM |  |  |  |
| CNC(=O)C(c1ccc(OC(F)F)cc1)N1C[C@@H](C)n2nc3c(c2C1=O)CN(C(=O)c1ccc(Cl)c(Cl)c1)[C@H](C)C3 (single isomer, unassigned) [Compound 23B, (S*)-2-((3R,7R)-2-(3,4-dichlorobenzoyl)-3,7-dimethyl-10-oxo-1,3,4,7,8,10-hexahydropyrido[4′,3′:3,4]pyrazolo[1,5-a]pyrazin-9(2H)-yl)-2-(4-(difluoromethoxy)phenyl)-N-methylacetamide] | >3 h | 49.3 µM | 0.24 µM |  |  |  |
| CC(c1cc(F)c(=O)n(C)c1)N1C[C@@H](C)n2nc3c(c2C1=O)CN(C(=O)c1ccc(Cl)c(Cl)c1)[C@H](C)C3 (relative stereo) [Compound 45A, (3R,7R)-2-(3,4-dichlorobenzoyl)-9-((R*)-1-(5-fluoro-1-methyl-6-oxo-,6-dihydropyridin-3-yl)ethyl)-3,7-dimethyl-1,2,3,4,8,9-hexahydropyrido[4′,3′:3,4]pyrazolo [1,5-a]pyrazin-10(7H)-one] | >3 h | > 50 µM | 0.57 µM |  |  |  |
| Cc1ccc(C(C)N2C[C@@H](C)n3nc4c(c3C2=O)CN(C(=O)c2ccc(Cl)c(Cl)c2)[C@H](C)C4)nn1 (single isomer, unassigned) [Compound 6A, (3R,7R)-2-(3,4-dichlorobenzoyl)-3,7-dimethyl-9-((R*)-1-(6-methylpyridazin-3-yl)ethyl)-1,2,3,4,8,9-hexahydropyrido[4′,3′:3,4]pyrazolo[1,5-a]pyrazin-10(7H)-one] | 1.18 h |  |  | > 50 µM | 0.086 µM |  |
| CC(c1cnn(C2CC2)c(=O)c1)N1C[C@@H](C)n2nc3c(c2C1=O)CN(C(=O)c1ccc(Cl)c(C(F)(F)F)c1)[C@H](C)C3 (single isomer, unassigned) [Compound 54A, (3R,7R)-2-(4-chloro-3-(trifluoromethyl)benzoyl)-9-((R*)-1-(1-cyclopropyl-6-oxo-1,6-dihydropyridazin-4-yl)ethyl)-3,7-dimethyl-1,2,3,4,8,9-hexahydropyrido[4′,3′: 3,4]pyrazolo[1,5-a]pyrazin-10(7H)-one] |  |  | 0.16 µM | > 50 µM |  | 1.29 h |
| C[C@@H]1Cc2nn3c(c2CN1C(=O)c1ccc(Cl)c(Cl)c1)C(=O)N([C@H](C)c1ccc([S@](C)(=N)=O)cc1)C[C@H]3C (relative stereo) [Compound 18A, (3R,7R)-2-(3,4-dichlorobenzoyl)-3,7-dimethyl-9-((R*)-1-(4-((R*)—S-methylsulfonimidoyl)phenyl)ethyl)-1,2,3,4,8,9-hexahydropyrido[4′,3′:3,4]pyrazolo[1,5-a]pyrazin-10(7H)-one] |  |  |  | > 50 µM | 0.084 µM | > 3 h |
| Cc1ncc(C(C)N2C[C@@H](C)n3nc4c(c3C2=O)CN(C(=O)c2ccc(Cl)c(Cl)c2)[C@H](C)C4)cn1 (single isomer, unassigned) [Compound 4A, (3R,7R)-2-(3,4-dichlorobenzoyl)-3,7-dimethyl-9-((R*)-1-(2-methylpyrimidin-5-yl)ethyl)-1,2,3,4,8,9-hexahydropyrido[4′,3′:3,4]pyrazolo[1,5-a]pyrazin-10(7H)-one] |  |  | 0.28 µM | > 50 µM |  | > 3 h |
| CC(c1ccc(C#N)cc1)N1C[C@@H](C)n2nc3c(c2C1=O)CN(C(=O)c1ccc(Cl)c(Cl)c1)[C@H](C)C3 (single isomer, unassigned) [Compound 66A, 4-((R*)-1-((3R,7R)-2-(3,4-dichlorobenzoyl)-3,7-dimethyl-10-oxo-1,3,4,7,8,10-hexahydropyrido[4′,3′:3,4]pyrazolo[1,5-a]pyrazin-9(2H)-yl)ethyl)benzonitrile] |  |  | 0.037 µM | > 26.2 µM |  | > 3 h |
| Cc1ncnn1-c1ccc([C@H](C)N2C[C@@H](C)n3nc4c(c3C2=O)CN(C(=O)c2ccc(Cl)c(Cl)c2)[C@H](C)C4)cn1 (relative stereo) [Compound 25B, (3R,7R)-2-(3,4-dichlorobenzoyl)-3,7-dimethyl-9-((S*)-1-(6-(5-methyl-11H-1,2,4-triazol-1-yl)pyridin-3-yl)ethyl)-1,2,3,4,8,9-hexahydropyrido[4′,3′:3,4]pyrazolo[1,5-a]pyrazin-10(7H)-one] |  |  |  | > 50 µM | 0.017 µM | 1.49 h |
